Test results: patent publication US20200390754A1, “METHODS OF ADMINISTERING TOLPERISONE” (Neurana Pharmaceuticals, Inc., priority 2017, published 2020)

How the values were obtained:
[1] = test system: male and female healthy volunteers; assay: Country Vigilance-Divided Attention (CVDA) driving scenario on the CRCDS-MiniSim driving simulator; details: for Lane Exceedance (extent of driving outside of lanes) / Total Collisions: Tolperisone 450 mg, Cyclobenzaprine 30 mg, TID; for SDLP in driving simulation compared to placebo (words, FIG. 1): primary endpoint; for Reaction time on the divided attention test: Day 1, compared to placebo (placebo or cyclobenzaprine)
Description: Methodology: This was a randomized, placebo-controlled, multiple-dose 3-way cross-over study of the safety and cognitive effects of multiple doses of 150 mg tolperisone film-coated tablets (prepared according to methods described and referred to herein) administered three times daily (TID) in 31 male and female healthy volunteers. […] Subjects received 3 days of each treatment over three treatment periods. Subject participation was approximately 3 weeks as outpatients with 3 days each week as overnight clinic participants. Subjects were screened within 28 days prior to Treatment Period 1 (Visit 2) for eligibility for participation in the study. Subjects who met all inclusion/exclusion criteria were admitted to the clinic on Day 1 to be evaluated for continued eligibility. Subjects performed a practice trial with the driving simulator and the cognitive function test. Subjects were dosed on the morning of Day 1. Approximately one hour after the […] dose on Day 1, subjects were administered the cognitive test, followed by the driving simulator examination. On the morning of Day 2, prior to dosing, subjects were re-administered the cognitive test and driving examination to assess residual next day effects. Subjects repeated cognitive testing and the driving examination on the morning of Day 3, after administration of the AM study medication, to evaluate the cumulative effects of 3 days of dosing. Subjects were discharged on Day 3 with instructions to return to the clinic on […] to repeat the above procedure with the second and third treatments. A follow-up phone call was conducted 1 week (±3 days) following discharge from the clinic on Day 17 to assess for continued safety. The total duration of study participation was approximately 4 weeks (range 4-8 weeks), including Screening and Follow-up.
The pharmacodynamic measures included simulated driving performance as measured by SDLP using the Cognitive Research Corporation Driving Simulator-MiniSim (CRCDS-MiniSim), the Karolinska Sleepiness Scale, the CogScreen Symbol Digit Coding (SDC) test, a self-perceived safety to drive question, the Visual Analog Scale (VAS) to assess subject's motivation and self-appraisal of their driving performance, and an assessment of the relationship between single-dose plasma drug levels and driving performance. Blood samples for the determination of plasma tolperisone concentrations were drawn prior to each AM dosing on Days 1-3, 8-10, 15-17 and post-driving test (15-30 minutes after the drive) on Days 1, 8, and 15. Blood samples collected post-driving test on Days 3, 10, and 17 were drawn between 1.5 and 2 hours after the start of the drive (approximately 10:30 AM to 11:00 AM). Safety was assessed by the monitoring and recording of adverse events, vital sign measurements, clinical laboratory abnormalities, electrocardiograms (ECGs), pregnancy tests, and physical examinations.
The primary endpoint, SDLP, was analyzed using a mixed-model, repeated measures with fixed effects for sequence, period, and treatment, with repeated observations for subjects. An unstructured covariance structure and Kenward-Roger degrees of freedom was used. […] In addition, pair-wise within subject differences in SDLP greater than 4.4 cm in absolute value (equal to the previously found difference between placebo and 0.05% Blood Alcohol Content (BAC) for the CRCDS) were compared using McNemar's test. Pair-wise within subject differences in SDLP were also tested for symmetry about […] using the maximally selected McNemar test. P-values for significance testing of period and sequence effects are also provided. Pair-wise comparisons (hypothesis tests) of differences in least squares means, and 95% confidence intervals on differences will be provided for:
A 62.1 mile (100 km), monotonous, two-lane highway driving task that includes a secondary visual vigilance task (DA).

[2] = test system: male and female healthy volunteers; assay: Digit Symbol Substitution Test (CogScreen Symbol Digit Coding); assay type: in vivo, human; details: Tolperisone 450 mg, Cyclobenzaprine 30 mg, TID
Description: (§1) Subjects were dosed on the morning of Day 1.
This test is used to measure attention, visual scanning, working memory, and speed of information processing. SDC is a computer analogue of the conventional symbol-substitution task found in the WAIS-R Digit Symbol subtest and the Symbol Digit Modalities Test. Details of the use of the SDC are provided in the CogScreen® Examiner Manual, CogScreen LLC, 2016. CogScreen SDC endpoints include: • Number of correct responses; • Response Accuracy; and • Standard deviation of reaction time.

[3] = test system: male and female healthy volunteers; assay: Safety: treatment emergent adverse events; assay type: in vivo, human; details: for Treatment Emergent Adverse Events: Cardiac / Treatment Emergent Adverse Events: Gastrointestinal Disorders / Treatment Emergent Adverse Events: General: Sluggishness / Treatment Emergent Adverse Events: Nervous System Disorders, Attention / Treatment Emergent Adverse Events: Nervous System Disorders, Dizziness / Treatment Emergent Adverse Events: Nervous System Disorders, Headache / Treatment Emergent Adverse Events: Nervous System Disorders, Lethargy / Treatment Emergent Adverse Events: Nervous System Disorders, Somnolence / Treatment Emergent Adverse Events: Psychiatric (Insomnia) / Treatment Emergent Adverse Events: Respiratory / Treatment Emergent Adverse Events: Skin: Tolperisone 450 mg, Cyclobenzaprine 30 mg; for number of Treatment Emergent Adverse Events (TEAEs) reported: n per treatment, 3 days of each treatment
Description: as §1
Safety analysis was based on the safety population. Safety measures were summarized using descriptive statistics and listed for each subject. MedDRA thesaurus was used to map adverse events verbatim to preferred terms and body systems. WHOdrug thesaurus (Sep. 1, 2016) was used to map prior medication and concomitant medication verbatim to preferred terms and ATC Class.
The Principal Investigator was responsible for the monitoring of subjects' safety and reporting of all adverse events (AEs) and serious adverse events (SAEs). The study personnel reviewed subject-volunteered information related to subjective complaints, and reviewed all laboratory findings and queried the subject specifically for visits requiring hospitalization, procedures, laboratory follow-up, or unscheduled visits to see their physician. Each trial subject was questioned about AEs during treatment with study drug. All AEs were documented in the subject's source documents as well as on the appropriate case report form (CRF). The Investigator assessed and recorded any AE in detail on the AE CRF pages including a description of the event, the date of onset, severity, time course, duration and outcome, relationship of the AE to study drug, and an alternate etiology for events not considered “probably” related to study drug and any actions taken.

[4] = test system: male and female healthy volunteers; assay: Karolinska Sleepiness Scale (KSS) test; assay type: in vivo, human; details: for Karolinska Sleepiness Scale (KSS): Tolperisone 450 mg, Cyclobenzaprine 30 mg, TID
Description: as §1
The Karolinska Sleepiness Scale (KSS) was used to assess subjective level of sleepiness. This is a subject self-report measure of situational sleepiness and provides an assessment of alertness/sleepiness at a particular point in time. […] Subjects indicated their level of alertness versus sleepiness according to the following scale:
The KSS assessment was performed immediately before and after the simulated driving test Subjects self-reported their KSS assessments and the scores were recorded in the case report form.

Average speed compared to placebo ([1]; in vivo)	Divided attention: number of Commission Errors compared to placebo ([1]; in vivo)	Divided attention: number of Correct Responses compared to placebo ([1]; in vivo)	Divided attention: number of Omission Errors ([1]; in vivo)	Total Collisions compared to placebo ([1]; in vivo)	SDLP in driving simulation compared to placebo (words, FIG. 1) [1]	Symbol Digit Coding (SDC) Cognitive Research Version ([2]; Day 1 (at Tmax))	Symbol Digit Coding (SDC) Cognitive Research Version ([2]; Next Day Residual)	Symbol Digit Coding (SDC) Cognitive Research Version ([2]; Steady State)	SMILES	Treatment Emergent Adverse Events: Cardiac [3]	Treatment Emergent Adverse Events: Gastrointestinal Disorders [3]	Treatment Emergent Adverse Events: General: Sluggishness [3]	Treatment Emergent Adverse Events: Nervous System Disorders, Attention [3]	Treatment Emergent Adverse Events: Nervous System Disorders, Dizziness [3]	Treatment Emergent Adverse Events: Nervous System Disorders, Headache [3]	Treatment Emergent Adverse Events: Nervous System Disorders, Lethargy [3]	Treatment Emergent Adverse Events: Nervous System Disorders, Somnolence [3]	Treatment Emergent Adverse Events: Psychiatric (Insomnia) [3]	Treatment Emergent Adverse Events: Respiratory [3]	Treatment Emergent Adverse Events: Skin [3]	also measured
did not differ significantly	non-significant	no significant effect	no increase	no significant increase	significantly impaired effect	66.4	66.7	67.4	CN(C)CCC=C1c2ccccc2C=Cc2ccccc21 [Cyclobenzaprine, cyclobenzaprine]	1	4	1	0	3	0	1	10	1	0	0	Lane Exceedance Maximum and Duration of Exceedance compared to placebo ([1]; Cyc: Days 1 and 2, Tol: any time-point): significantly worse; Lane Exceedance (extent of driving outside of lanes) ([1]; Day 1 (at Tmax)): 3.6; Total Collisions ([1]; Day 1 (at Tmax)): 1.6; Speedings Ratio compared to placebo ([1]; Day 2 and 3): no significant effect; Lane Exceedance (extent of driving outside of lanes) ([1]; Next Day Residual): 3.2; Total Collisions ([1]; Next Day Residual): 0.4; Lane Exceedance (extent of driving outside of lanes) ([1]; Steady State): 2.9; Total Collisions ([1]; Steady State): 0.1; severe AE ([3]; in vivo): one severe AE of dizziness; number of Treatment Emergent Adverse Events (TEAEs) reported [3]: 21; KSS subjective sleepiness ([4]; Day 1): significantly more subjective sleepiness; Karolinska Sleepiness Scale (KSS) ([4]; Day 1 (at Tmax)): 5.5; KSS subjective sleepiness ([4]; Day 2 or Day 3): did not report feeling more sleepy; Karolinska Sleepiness Scale (KSS) ([4]; Next Day Residual): 4.1; Karolinska Sleepiness Scale (KSS) ([4]; Steady State): 3.8
did not differ significantly	non-significant	no significant effect	no increase	no significant increase	equivalent results	66.6	69.3	70.1	Cc1ccc(C(=O)C(C)CN2CCCCC2)cc1 (stereo not drawn) [Tolperisone, tolperisone]	0	1	0	1	1	1	0	5	0	1	0	Reaction time on the divided attention test [1]: statistically significant improvement; Reaction time on the divided attention test ([1]; listed as Tol): significantly faster; Excessive Ay compared to placebo ([1]; in vivo): no significant increase; Lane Exceedance Maximum and Duration of Exceedance compared to placebo ([1]; in vivo): not seen; Speedings Count compared to placebo ([1]; in vivo): not significantly impacted; Speedings Ratio compared to placebo ([1]; in vivo): no significant effect; hangover effect the morning following nighttime dosing ([1]; in vivo): does not produce a hangover effect; majority of secondary driving endpoint measures compared to placebo ([1]; in vivo): no statistically significant difference; discontinuation due to AE ([3]; following the first day of dosing): one subject due to a moderate AE of a Crohn's Disease flare up; number of Treatment Emergent Adverse Events (TEAEs) reported [3]: 15; Karolinska Sleepiness Scale (KSS) ([4]; Day 1 (at Tmax)): 3.5; Karolinska Sleepiness Scale (KSS) ([4]; Next Day Residual): 4.0; Karolinska Sleepiness Scale (KSS) ([4]; Steady State): 3.1; KSS self-reported sleepiness ([4]; any time-point): no significant increase
